Data reported in the supplement of paper PMC10307832.

Key:
Assay in all cases: relative viability (nuclei count vs DMSO), 5 days (fraction); higher = more cells survive
Dabrafenib + Dasatinib = compound: CC(C)(C)c1nc(-c2cccc(NS(=O)(=O)c3c(F)cccc3F)c2F)c(-c2ccnc(N)n2)s1 [Dabrafenib] + Cc1nc(Nc2ncc(C(=O)Nc3c(C)cccc3Cl)s2)cc(N2CCN(CCO)CC2)n1 [Dasatinib] (partner 0.075 µM)
Method in brief: (§1)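 Lung cancer cell lines in 1536-well plates got either a single drug or a fixed anchor-drug dose together with five library-drug doses (not always all listed) in √10 steps, by pin tool, on the day after seeding. Nuclei were counted after 5 days, and relative viability is the treated-to-vehicle ratio of nuclei counts. Values are medians of duplicate plates.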

VX-702 + Crizotinib = compound: NC(=O)c1ccc(N(C(N)=O)c2c(F)cccc2F)nc1-c1ccc(F)cc1F [VX-702] + C[C@@H](Oc1cc(-c2cnn(C3CCNCC3)c2)cnc1N)c1c(Cl)ccc(F)c1Cl [Crizotinib] (partner 1 µM)
Method in brief: as §1

VX-702 + Foretinib = compound: NC(=O)c1ccc(N(C(N)=O)c2c(F)cccc2F)nc1-c1ccc(F)cc1F [VX-702] + COc1cc2c(Oc3ccc(NC(=O)C4(C(=O)Nc5ccc(F)cc5)CC4)cc3F)ccnc2cc1OCCCN1CCOCC1 [Foretinib] (partner 0.25 µM)
Method in brief: as §1

Dabrafenib + Alpelisib = compound: CC(C)(C)c1nc(-c2cccc(NS(=O)(=O)c3c(F)cccc3F)c2F)c(-c2ccnc(N)n2)s1 [Dabrafenib] + Cc1nc(NC(=O)N2CCC[C@H]2C(N)=O)sc1-c1ccnc(C(C)(C)C(F)(F)F)c1 [Alpelisib] (partner 2 µM)
Method in brief: as §1

| Cell Line | relative viability (Dabrafenib + Dasatinib; first compound 0.003 µM) | relative viability (Dabrafenib + Dasatinib; first compound 0.009487 µM) | relative viability (Dabrafenib + Dasatinib; first compound 0.03 µM) | relative viability (Dabrafenib + Dasatinib; first compound 0.09487 µM) | relative viability (Dabrafenib + Dasatinib; first compound 0.3 µM) | relative viability (VX-702 + Crizotinib; first compound 0.02 µM) | relative viability (VX-702 + Crizotinib; first compound 0.2 µM) | relative viability (VX-702 + Crizotinib; first compound 0.6325 µM) | relative viability (VX-702 + Crizotinib; first compound 2 µM) | relative viability (VX-702 + Foretinib; first compound 0.02 µM) | relative viability (VX-702 + Foretinib; first compound 0.2 µM) | relative viability (VX-702 + Foretinib; first compound 0.6325 µM) | relative viability (VX-702 + Foretinib; first compound 2 µM) | relative viability (Dabrafenib + Alpelisib; first compound 0.003 µM) | relative viability (Dabrafenib + Alpelisib; first compound 0.009487 µM) | relative viability (Dabrafenib + Alpelisib; first compound 0.03 µM) | relative viability (Dabrafenib + Alpelisib; first compound 0.09487 µM) | relative viability (Dabrafenib + Alpelisib; first compound 0.3 µM) |
| --- | --- | --- | --- | --- | --- | --- | --- | --- | --- | --- | --- | --- | --- | --- | --- | --- | --- | --- |
| 201T | 0.606 | 0.541 | 0.57 | 0.497 | 0.54 | 1.01 | 1.02 | 1.08 | 1.04 | 0.943 | 0.987 | 1.05 | 1.07 | 1.06 | 1.08 | 0.932 | 1.01 | 1.05 |
| A549 | – | – | – | – | – | 0.754 | 0.812 | 0.739 | 1.08 | 1.02 | 0.975 | 0.92 | 1.07 | 0.641 | 0.949 | 0.83 | 0.754 | 0.705 |
| A-427 | – | 0.77 | 0.594 | 0.51 | 0.627 | 0.824 | 0.81 | 0.808 | 1.01 | 1.06 | 1.03 | 0.97 | 1.08 | – | 1.18 | 0.885 | 0.932 | 1.1 |
| ABC-1 | 0.64 | 0.531 | – | 0.58 | 0.799 | 1.34 | – | 1.08 | 1.42 | 1.24 | 0.968 | 0.859 | 1.33 | – | 0.934 | 1.14 | 1.13 | 1.28 |
| BEN | – | 0.334 | – | 0.356 | 0.327 | 0.732 | 0.781 | 0.937 | 0.956 | 0.73 | 0.556 | 0.57 | 0.876 | – | 1.16 | – | 0.974 | 1.17 |
| CAL-12T | 0.493 | 0.434 | 0.476 | 0.325 | 0.42 | 0.636 | 0.564 | 0.756 | 0.651 | 1.05 | 1.09 | 1.01 | 1.28 | 1.38 | 1.33 | 1.27 | 1.14 | 1.45 |
| COR-L23 | 0.448 | 0.441 | 0.555 | 0.455 | 0.425 | 0.768 | 0.666 | 0.668 | 0.757 | 1.04 | 1 | 0.995 | 1.38 | 0.715 | 0.784 | 0.713 | 0.678 | 0.85 |
| COR-L 105 | 0.316 | 0.39 | 0.366 | 0.373 | 0.368 | 0.653 | 0.79 | 0.956 | 1.21 | 1.02 | 0.838 | 1.14 | 1.3 | 0.829 | 1.08 | 1.16 | 1.13 | 1.14 |
| Calu-6 | – | – | – | – | – | 0.847 | 0.86 | 0.764 | 0.996 | 0.975 | 0.902 | 0.896 | 0.971 | 0.964 | 0.896 | 0.92 | 0.723 | 0.593 |
| ChaGo-K-1 | 0.477 | 0.487 | 0.56 | 0.586 | 0.559 | 1.09 | 1.1 | 1.21 | 1.23 | 0.867 | 0.892 | 0.893 | 0.901 | – | – | – | – | – |
| EBC-1 | – | – | – | – | – | 0.191 | 0.18 | 0.158 | 0.201 | 0.107 | 0.111 | 0.0889 | 0.0899 | 0.71 | 0.649 | 0.563 | 0.264 | 0.24 |
| EKVX | – | 0.585 | 0.522 | 0.533 | 0.628 | 0.774 | 0.969 | 0.905 | 1.2 | 0.754 | 0.432 | 0.49 | 0.685 | 0.923 | 1.05 | 0.889 | 0.682 | 1.07 |
| EMC-BAC-2 | 0.327 | 0.319 | 0.317 | 0.246 | 0.295 | 0.779 | 0.678 | 0.791 | 0.698 | 0.597 | 0.93 | 0.999 | 1.06 | 0.744 | 0.746 | 0.574 | 0.666 | 0.784 |
| EPLC-272H | 0.281 | 0.443 | 0.399 | 0.344 | 0.33 | 0.968 | 0.773 | 0.983 | 1.16 | 0.6 | 0.659 | 0.667 | 0.817 | – | 1.1 | 0.843 | 0.962 | 0.864 |
| H3255 | 0.285 | 0.425 | 0.341 | 0.421 | 0.377 | 0.774 | 1.09 | 0.855 | 0.86 | 1.01 | 0.781 | 0.89 | 0.855 | 0.647 | 0.813 | 0.684 | 0.669 | 0.664 |
| HARA | 0.242 | 0.346 | – | 0.294 | 0.264 | 1.1 | 0.982 | 1.07 | 1.13 | 0.852 | 0.763 | 0.908 | 0.814 | 0.669 | 0.89 | 0.646 | 0.732 | 1.09 |
| HCC-15 | 0.597 | 0.665 | 0.775 | 0.651 | 0.754 | 0.873 | 0.834 | 0.759 | 0.848 | 0.952 | 0.915 | 0.99 | 0.793 | 0.831 | 0.971 | 0.909 | 0.912 | 0.893 |
| HCC-44 | – | – | – | – | – | 0.802 | 0.739 | 0.817 | 0.971 | – | – | – | – | 0.751 | 0.792 | 0.789 | 0.732 | 0.807 |
| HCC-78 | – | 0.492 | 0.483 | 0.251 | 0.408 | 0.348 | 0.327 | 0.321 | 0.341 | 0.523 | 0.527 | 0.59 | 0.479 | – | 0.445 | 0.346 | 0.305 | 0.332 |
| HCC-366 | 0.197 | 0.692 | 0.68 | 0.627 | 0.584 | 0.588 | 0.396 | 0.525 | 0.601 | 0.896 | 0.873 | 0.955 | 0.922 | – | 0.435 | 0.145 | 0.374 | 0.59 |
